Results: paper PMC3155282 (ACS Medicinal Chemistry Letters, 2011)

What was measured:
CYP3A4 [1] = target: T1, CYP3A4 (Homo sapiens, UniProt P08684); conditions: recombinant enzyme
CYP2D6 = CYP2D6 (Homo sapiens, UniProt P10635); conditions: recombinant enzyme
[2] = tested on: others of recombinant CYP1A2, 2B6, 2C8, 2C9, 2C19, 2D6 and 3A4; conditions: recombinant enzyme
CYP2D6 and 2J2 = conditions: catalyzed by CYP2D6 and 2J2; cited from earlier work
cytochrome P450s = conditions: cited from earlier work
CYP3A4 [3] = target: T1, CYP3A4; conditions: cited from earlier work
CYP2C8 = target: T2, CYP2C8 (Homo sapiens, UniProt P10632); assay: P450 isoform phenotyping assay, parent compound depletion, recombinant CYP2C8; format: in vitro ADME; conditions: recombinant CYP2C8, 1 µM compound
T2 sequence (P10632 1-490): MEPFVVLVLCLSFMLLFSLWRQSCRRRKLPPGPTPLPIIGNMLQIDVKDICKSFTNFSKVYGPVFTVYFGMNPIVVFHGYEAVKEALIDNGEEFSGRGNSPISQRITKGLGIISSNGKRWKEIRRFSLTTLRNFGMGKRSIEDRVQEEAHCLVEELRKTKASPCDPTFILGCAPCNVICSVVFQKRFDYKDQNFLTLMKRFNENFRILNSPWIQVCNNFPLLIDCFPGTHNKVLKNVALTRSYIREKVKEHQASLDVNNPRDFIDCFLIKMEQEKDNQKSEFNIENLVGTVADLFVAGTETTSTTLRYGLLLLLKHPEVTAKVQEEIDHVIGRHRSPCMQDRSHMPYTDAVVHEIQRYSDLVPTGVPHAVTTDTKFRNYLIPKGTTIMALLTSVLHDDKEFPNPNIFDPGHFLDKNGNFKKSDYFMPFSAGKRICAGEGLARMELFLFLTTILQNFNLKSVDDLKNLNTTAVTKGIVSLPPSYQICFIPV

T1 sequence (P08684 whole entry): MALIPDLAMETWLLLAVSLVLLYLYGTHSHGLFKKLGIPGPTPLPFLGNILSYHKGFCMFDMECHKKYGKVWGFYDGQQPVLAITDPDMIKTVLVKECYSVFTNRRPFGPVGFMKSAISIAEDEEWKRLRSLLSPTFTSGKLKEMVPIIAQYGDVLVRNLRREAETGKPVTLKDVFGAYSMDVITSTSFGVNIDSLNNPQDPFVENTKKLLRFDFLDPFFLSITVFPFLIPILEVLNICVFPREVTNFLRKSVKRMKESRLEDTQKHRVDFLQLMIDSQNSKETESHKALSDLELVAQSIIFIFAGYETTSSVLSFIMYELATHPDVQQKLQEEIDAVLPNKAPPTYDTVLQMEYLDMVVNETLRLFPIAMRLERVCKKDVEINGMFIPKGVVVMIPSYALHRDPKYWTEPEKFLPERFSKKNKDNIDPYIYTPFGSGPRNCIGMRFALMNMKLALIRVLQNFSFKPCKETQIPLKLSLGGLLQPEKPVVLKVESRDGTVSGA
CYP2D6, sequence (P10635 whole entry): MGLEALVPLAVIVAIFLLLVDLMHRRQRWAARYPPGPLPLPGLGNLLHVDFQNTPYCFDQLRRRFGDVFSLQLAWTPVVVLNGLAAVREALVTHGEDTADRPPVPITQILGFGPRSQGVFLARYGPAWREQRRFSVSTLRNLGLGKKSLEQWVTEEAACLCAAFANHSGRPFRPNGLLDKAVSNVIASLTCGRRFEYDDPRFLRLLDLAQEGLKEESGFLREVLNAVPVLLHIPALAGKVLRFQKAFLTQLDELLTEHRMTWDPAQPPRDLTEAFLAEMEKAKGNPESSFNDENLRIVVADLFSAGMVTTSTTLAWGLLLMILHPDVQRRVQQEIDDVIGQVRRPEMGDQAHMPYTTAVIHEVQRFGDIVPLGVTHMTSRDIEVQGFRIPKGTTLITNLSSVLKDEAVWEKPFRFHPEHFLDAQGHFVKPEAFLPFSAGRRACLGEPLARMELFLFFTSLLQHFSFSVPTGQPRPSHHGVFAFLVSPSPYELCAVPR

| Structure (SMILES) | half-life (t1/2) of parent compound depletion from phenotyping assay, 3A4 (CYP3A4 [1]) | half-life (t1/2) of parent compound depletion from phenotyping assay, 2D6 (CYP2D6) | half-life (t1/2) of parent compound depletion from phenotyping assay, others [2] | conversion from astemizole to O-desmethylastemizole (CYP2D6 and 2J2) [%] | N-dealkylation (major or minor pathway) (cytochrome P450s) | conversion from astemizole to benzimidazole hydroxylated metabolite (CYP3A4 [3]) [%] | half-life (t1/2) of parent compound depletion from phenotyping assay, 2C8 (CYP2C8) | contribution of CYP2D6 to metabolism (CYP2D6) |
| --- | --- | --- | --- | --- | --- | --- | --- | --- |
| COc1ccc(CCN2CCC(Nc3nc4ccccc4n3Cc3ccc(F)cc3)CC2)cc1 [astemizole] | 3A4 (1.5 m), 2D6 (4.0 m), others (>60 m) | 3A4 (1.5 m), 2D6 (4.0 m), others (>60 m) | 3A4 (1.5 m), 2D6 (4.0 m), others (>60 m) | 67 | minor | 25 | – | – |
| CN1CCC(N(Cc2ccccc2)c2ccccc2)CC1 [bamipine] | – | – | – | – | major | – | – | – |
| O=C(CCCN1CCC(n2c(O)nc3ccccc32)CC1)c1ccc(F)cc1 [benperidol] | 3A4 (3.3 m), 2D6 (10.4 m), 2C8 (43.8 m), others (>60 m) | 3A4 (3.3 m), 2D6 (10.4 m), 2C8 (43.8 m), others (>60 m) | 3A4 (3.3 m), 2D6 (10.4 m), 2C8 (43.8 m), others (>60 m) | – | major | – | 3A4 (3.3 m), 2D6 (10.4 m), 2C8 (43.8 m), others (>60 m) | – |
| COc1cc(N)c(Cl)cc1C(=O)NC1CCN(CCCOc2ccc(F)cc2)CC1OC (centres unmarked) [cisapride] | – | – | 3A4 (<5 m), others (>60 m) | – | major | – | – | – |
| COc1cc(N)c(Cl)cc1C(=O)NC1CCN(Cc2ccccc2)CC1 [clebopride] | 3A4 (<5 m), others (>60 m) | – | 3A4 (<5 m), others (>60 m) | – | major | – | – | – |
| O=C(NC1CCN(CCc2c[nH]c3ccccc23)CC1)c1ccccc1 [indoramin] | 2D6 (<5 m), 3A4 (16.0 m), others (>60 m) | 2D6 (<5 m), 3A4 (16.0 m), others (>60 m) | 2D6 (<5 m), 3A4 (16.0 m), others (>60 m) | – | minor | – | – | contributed significantly |
| O=c1[nH]c2ccccc2n1C1CCN(CCCC(c2ccc(F)cc2)c2ccc(F)cc2)CC1 [pimozide] | 3A4 (2.7 m), 2D6 (3.2 m), others (>60 m) | 3A4 (2.7 m), 2D6 (3.2 m), others (>60 m) | 3A4 (2.7 m), 2D6 (3.2 m), others (>60 m) | – | major | – | – | – |
| CN(c1nc2ccccc2s1)C1CCN(CC(O)COc2ccc(F)cc2)CC1 (centres unmarked) [sabeluzole] | 2D6 (1.5 m), 3A4 (<5.0 m), others (>60 m) | 2D6 (1.5 m), 3A4 (<5.0 m), others (>60 m) | 2D6 (1.5 m), 3A4 (<5.0 m), others (>60 m) | – | minor | – | – | contributed significantly |
| O=C(CCCN1CCC(n2c(=S)[nH]c3ccccc32)CC1)c1ccc(F)cc1 [timiperone] | – | – | – | – | major | – | – | – |
